Laboratory results as given in patent publication US6906078B2, “Method of using (H+/K+) ATPase inhibitors as antiviral agents” (Pharmacia Corporation, priority 1994, dated 2005).

How the values were obtained:
[1] = molecular target: HCMV protease (assemblin) (Human cytomegalovirus, UniProt P16753); assay: Enzymatic assay for HCMV protease (assemblin) inhibitors, fluorogenic substrate DE2; type: biochemical; details: at 100 μm; 30 min preincubation at 22° C.; read-out: Assemblin Inhibition % Inhibition at 100 μm
Chain of HCMV protease (assemblin) (P16753 1-256): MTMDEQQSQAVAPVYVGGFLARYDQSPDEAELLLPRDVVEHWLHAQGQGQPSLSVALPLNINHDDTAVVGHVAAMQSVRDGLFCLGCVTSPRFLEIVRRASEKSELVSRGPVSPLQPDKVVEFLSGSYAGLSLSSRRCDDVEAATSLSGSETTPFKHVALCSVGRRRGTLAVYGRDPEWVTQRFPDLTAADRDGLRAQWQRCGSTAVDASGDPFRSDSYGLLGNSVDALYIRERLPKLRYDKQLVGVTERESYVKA
Protocol: The enzymatic assay for assemblin inhibitors compared the rate of product appearance between a control reaction containing no inhibitor and one that contained a known concentration of a potential inhibitor. There were two phases to the enzyme reaction. The first was a period of incubation of enzyme in the presence of inhibitor, but in the absence of the substrate. This incubation allowed for the inhibitor to bind and potentially block the enzyme from hydrolyzing the substrate. The second phase was started by adding the substrate and measuring the rate of product production.
The construction also encoded six additional histidine residues at the amino terminus of the protease. These additional histidine residues provided an affinity ligand by which it was purified using nickel-nitriloacetic acid-agarose (Qiagen).
The purified protease was stored as a 1-3 mg/ml stock solution in 50 mM sodium phosphate buffer, pH 7.4; 300 mM sodium chloride; 100 mM imidazole; 50% (v/v) glycerol. This stock was diluted with assay buffer to 4.8 μg/ml. A 100 μL aliquot of this solution was used in the enzyme reaction.
A specific substrate was synthesized based on the cleavage specificity of HCMV protease at the “maturation site” of the assembly protein (F. Liu and B. Roizman, J. Viral. 65, 5149 (1991), and A. R. Welch, et al, J. Viral., 65 4091 (1991)). The assembly protein maturation site has the sequence . . . AGVVNA*SCRLATA . . . (SEQ ID NO. 1); the substrate used was dabcycl-Abu-[…]-edans (SEQ ID NO. 2) (DE2). […] However, when the two chromophores are separated because of hydrolysis of the peptide moiety by HCMV protease the edans fluorescence was no longer quenched and an increase in fluorescence was realized. DE2 was stored as a stock solution at 160 μg/ml in dimethyl sulfoxide. This was diluted 10-fold with assay buffer to give a concentration of 16 μg/ml just before use. An aliquot of 50 μL was used in the reaction.
An assay Buffer (10 mM sodium phosphate buffer, pH 7.4; 150 mM sodium acetate; 0.1% CHAPS; and 20% (v/v) glycerol) was used to dilute stock solutions of enzyme and substrate.
Inhibitors were dissolved in dimethyl sulfoxide at 16-times the final assay concentration. A 10 μL aliquot of this inhibitor solution was used in the reaction.
A 100 μL aliquot of enzyme solution (4.8 μg/ml) was mixed with 10 μL of inhibitor solution in a 96-well plate cell and incubated at 22° C. for 30 minutes. Control reactions contained 10 μL of dimethylsulfoxide instead of inhibitor solution. After the preincubation was completed, 50 μL of substrate solution was added and the fluorescence recorded every 5 minutes for a period of 30 minutes. All reactions were run in triplicate with the exception of the uninhibited control reaction which was replicated 6-fold. The change in fluorescence was recorded over time and an average rate for each set of 3 reactions was calculated. Fluorescence assays were subject to spurious various due to factors such as dust in the 96-well plate; such results were omitted from the calculation of relative rates.

[2] = molecular target: T1, (H+/K+)-ATPase (Canis lupus familiaris, UniProt P50996); assay: Inhibition of (H+/K+)-ATPase from canine gastric mucosa (inorganic phosphate release); type: biochemical; details: canine gastric mucosa microsomes, pH 6.0, 30 min preincubation at 37° C.; read-out: (H+/K+)-ATPase IC50
T1 construct: The microsomes retained at the 15%-30% sucrose interface, after centrifugation at 250,000×g for sixty minutes, were used as the source of (H^+/K^+)-ATPase; from tissue; host or cells: gastric glandular mucosa of mongrel dogs (microsomal fraction, lyophilized)
T1 sequence (P50996 whole entry): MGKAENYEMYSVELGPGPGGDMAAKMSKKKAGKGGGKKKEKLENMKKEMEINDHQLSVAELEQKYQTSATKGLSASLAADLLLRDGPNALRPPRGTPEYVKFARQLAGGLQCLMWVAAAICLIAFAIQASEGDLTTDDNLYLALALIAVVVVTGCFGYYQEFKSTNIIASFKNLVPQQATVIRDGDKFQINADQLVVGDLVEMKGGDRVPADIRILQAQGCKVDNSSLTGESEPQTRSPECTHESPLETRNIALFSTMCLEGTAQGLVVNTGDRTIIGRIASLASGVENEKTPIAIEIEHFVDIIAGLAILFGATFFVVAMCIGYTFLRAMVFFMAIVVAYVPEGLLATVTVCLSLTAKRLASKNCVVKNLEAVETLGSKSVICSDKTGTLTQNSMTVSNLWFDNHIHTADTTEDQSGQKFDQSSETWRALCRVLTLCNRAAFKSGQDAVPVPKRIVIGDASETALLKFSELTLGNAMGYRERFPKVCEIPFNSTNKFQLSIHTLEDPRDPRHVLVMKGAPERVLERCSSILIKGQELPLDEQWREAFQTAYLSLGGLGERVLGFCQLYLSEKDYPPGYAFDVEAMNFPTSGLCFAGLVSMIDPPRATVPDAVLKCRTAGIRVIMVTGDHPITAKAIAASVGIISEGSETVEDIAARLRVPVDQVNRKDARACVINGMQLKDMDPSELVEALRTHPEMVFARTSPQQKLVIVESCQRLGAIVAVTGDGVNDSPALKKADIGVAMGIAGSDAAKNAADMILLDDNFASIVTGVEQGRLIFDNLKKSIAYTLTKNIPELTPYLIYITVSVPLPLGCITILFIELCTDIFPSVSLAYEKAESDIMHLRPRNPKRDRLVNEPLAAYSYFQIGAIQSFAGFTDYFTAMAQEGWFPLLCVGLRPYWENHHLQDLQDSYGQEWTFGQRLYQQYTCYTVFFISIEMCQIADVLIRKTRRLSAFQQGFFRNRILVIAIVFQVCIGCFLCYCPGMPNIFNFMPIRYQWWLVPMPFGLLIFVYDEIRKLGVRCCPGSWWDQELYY
T1 sequence (P33704 whole entry partner): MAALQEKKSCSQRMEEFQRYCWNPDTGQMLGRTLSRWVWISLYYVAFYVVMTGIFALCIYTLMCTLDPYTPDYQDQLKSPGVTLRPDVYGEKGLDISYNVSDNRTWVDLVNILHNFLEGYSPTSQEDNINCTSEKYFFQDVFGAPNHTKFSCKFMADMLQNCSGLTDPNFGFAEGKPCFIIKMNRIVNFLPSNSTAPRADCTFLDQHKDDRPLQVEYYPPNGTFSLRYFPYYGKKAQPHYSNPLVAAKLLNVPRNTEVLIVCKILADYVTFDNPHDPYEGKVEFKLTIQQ
In short: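 Lyophilised gastric microsomes (sucrose-gradient 15%/30% interface fraction from dog mucosa, ~25 mcg protein) preincubated with compound 30 min at 37° C in 20 mM MES-Tris pH 6.0, 5 mM MgCl2, 25 mM sucrose, then 30 min more after 4 mM Tris-ATP. Released phosphate read by molybdate/ascorbate at 870 nm; activity = K+-stimulated (20 mM KCl) minus basal.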

| inhibition at 100 µM [1] [%] | IC50 [2] [nM] | SMILES |
| --- | --- | --- |
| 60 | 1600 | COc1ccc(N)c(C[S+]([O-])c2nc3ccccc3[nH]2)c1 (stereo not drawn) [Example 20, 2-[(1H-Benzimidazol-2-ylsulfinyl)methyl]-4-methoxybenzenamine] |
| 67 | 7900 | Cc1ccc2[nH]c([S+]([O-])Cc3ccccc3N)nc2c1 (stereo not drawn) [Example 41, 2-[[(5-Methyl-1H-benzimidazol-2-yl)sulfinyl]-methyl]benzenamine] |
| 74 | 12000 | Nc1ccccc1C[S+]([O-])c1nc2cc(Cl)ccc2[nH]1 (stereo not drawn) [Example 43, 2-[[(5-Chloro-1H-benzimidazol-2-yl)sulfinyl]-methyl]benzenamine] |
| 85 | 600 | Cc1ccc(C[S+]([O-])c2nc3ccccc3[nH]2)c(N)c1C (stereo not drawn) [Example 53, 2-[(1H-Benzimidazol-2-ylsulfinyl)methyl]-5,6-dimethylbenzenamine ¼ hydrate] |
| 82 | 2100 | COc1ccc2[nH]c([S+]([O-])Cc3c(N)cc(C)c(OC)c3C)nc2c1 (stereo not drawn) [Example 78, 2-[[(5-Methoxy-1H-benzimidazol-2-yl)sulfinyl]methyl]-4-methoxy-3,5-dimethylbenzenamine] |
| 0 | 1900 | COc1ccc2[nH]c([S+]([O-])Cc3ncc(C)c(OC)c3C)nc2c1 (stereo not drawn) [omeprazole, reference compound] |
